Reference: PubChem BioAssay (NCI)
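Method: 48-hour compound exposure of cells in 96-well plates, five concentrations, linear interpolation of endpoints. Here, GI50 denotes the concentration required for 50% inhibition of growth. TGI: concentration producing complete growth inhibition.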

How the values were obtained:
Experiment in all cases: inhibition of tumour cell growth, NCI panel, 48 h
SF-539 CNS = system: SF-539 CNS
KM12 colon = system: KM12 colon
SR leukemia = system: SR leukemia
SNB-19 CNS = system: SNB-19 CNS
SN12C renal = system: SN12C renal
SW-620 colon = system: SW-620 colon
NCI-H23 lung = system: NCI-H23 lung
ACHN renal = system: ACHN renal
HOP-62 NSCLC = system: HOP-62 NSCLC
BT-549 breast = system: BT-549 breast

COC(=O)[C@H](Cc1cn(C)cn1)NC(=O)[C@H](CC(C)C)NC(=O)Nc1cc(C(F)(F)F)cc(C(F)(F)F)c1
GI50 (SF-539 CNS): > 10 µM
TGI (SF-539 CNS): > 10 µM
GI50 (KM12 colon): > 10 µM
TGI (KM12 colon): > 10 µM
GI50 (SR leukemia): 2.59 µM
TGI (SR leukemia): 8.41 µM
GI50 (SNB-19 CNS): > 10 µM
TGI (SNB-19 CNS): > 10 µM
GI50 (SN12C renal): 6.69 µM
TGI (SN12C renal): > 10 µM
GI50 (SW-620 colon): 5.28 µM
TGI (SW-620 colon): > 10 µM
GI50 (NCI-H23 lung): > 10 µM
TGI (NCI-H23 lung): > 10 µM
GI50 (ACHN renal): > 10 µM
TGI (ACHN renal): > 10 µM
GI50 (HOP-62 NSCLC): > 10 µM
TGI (HOP-62 NSCLC): > 10 µM
GI50 (BT-549 breast): > 10 µM
TGI (BT-549 breast): > 10 µM

CC1(C)C(=O)/C=C\C(=O)C(C)(C)C2=CC=C(O2)C(C)(C)C(=O)C(Br)C(Br)C(=O)C(C)(C)C2=CC=C1O2 (stereo not given)
TGI (SF-539 CNS): > 100 µM
TGI (KM12 colon): > 100 µM
TGI (SR leukemia): 5.62 µM
TGI (SNB-19 CNS): > 100 µM
TGI (SN12C renal): > 100 µM
TGI (SW-620 colon): 31.1 µM
TGI (NCI-H23 lung): > 100 µM
TGI (ACHN renal): > 46.4 µM
TGI (HOP-62 NSCLC): > 100 µM
TGI (BT-549 breast): 76.5 µM

CC(C)[C@@]12C[C@@H](OC(=O)C3CO3)[C@@](C)(O1)[C@@H]1CC[C@@H](C)[C@H]1[C@@H]2OC(=O)/C=C/c1ccccc1 (stereo not given in full)
GI50 (SF-539 CNS): 16.4 µM
TGI (SF-539 CNS): 31.4 µM
GI50 (KM12 colon): 18.7 µM
TGI (KM12 colon): 38.1 µM
GI50 (SR leukemia): 29.8 µM
TGI (SR leukemia): > 100 µM
GI50 (SNB-19 CNS): 16.6 µM
TGI (SNB-19 CNS): 33.4 µM
GI50 (SN12C renal): 11.9 µM
TGI (SN12C renal): 32.5 µM
GI50 (SW-620 colon): 18.5 µM
TGI (SW-620 colon): 39.3 µM
GI50 (NCI-H23 lung): 17.8 µM
TGI (NCI-H23 lung): 53.8 µM
GI50 (ACHN renal): 2.34 µM
TGI (ACHN renal): 7.79 µM
GI50 (HOP-62 NSCLC): 21.2 µM
TGI (HOP-62 NSCLC): > 100 µM
GI50 (BT-549 breast): 11.3 µM
TGI (BT-549 breast): 27.8 µM

Nc1nc(Sc2ccc([N+](=O)[O-])c3nonc23)c2ncn(C3OC(CO)C(O)C3O)c2n1 (stereo not given)
GI50 (SF-539 CNS): 0.738 µM
TGI (SF-539 CNS): > 37.2 µM
GI50 (KM12 colon): 2.89 µM
TGI (KM12 colon): > 64.1 µM
GI50 (SR leukemia): 0.113 µM
TGI (SR leukemia): > 41.2 µM
GI50 (SNB-19 CNS): > 63.5 µM
TGI (SNB-19 CNS): > 100 µM
GI50 (SN12C renal): 1.48 µM
TGI (SN12C renal): 21.8 µM
GI50 (SW-620 colon): 1.12 µM
TGI (SW-620 colon): > 35 µM
GI50 (NCI-H23 lung): 1.34 µM
TGI (NCI-H23 lung): 13.9 µM
GI50 (ACHN renal): 0.609 µM
TGI (ACHN renal): 23.8 µM
GI50 (HOP-62 NSCLC): 0.531 µM
TGI (HOP-62 NSCLC): > 100 µM
GI50 (BT-549 breast): 1.6 µM
TGI (BT-549 breast): 18.6 µM

O=C1OC2(c3ccc(O)cc3Oc3cc(O)ccc32)c2cccc3cccc1c23
GI50 (SF-539 CNS): 18.7 µM
TGI (SF-539 CNS): 43.4 µM
GI50 (KM12 colon): 23.2 µM
TGI (KM12 colon): 57.8 µM
GI50 (SR leukemia): 27.5 µM
TGI (SR leukemia): > 100 µM
GI50 (SNB-19 CNS): 17.5 µM
TGI (SNB-19 CNS): 34.1 µM
GI50 (SN12C renal): 22.1 µM
TGI (SN12C renal): 82.9 µM
GI50 (SW-620 colon): 16.5 µM
TGI (SW-620 colon): 42.7 µM
GI50 (NCI-H23 lung): 20 µM
TGI (NCI-H23 lung): 49.9 µM
GI50 (ACHN renal): 16.7 µM
TGI (ACHN renal): 44 µM
GI50 (HOP-62 NSCLC): 17 µM
TGI (HOP-62 NSCLC): 33.9 µM
GI50 (BT-549 breast): 21.6 µM
TGI (BT-549 breast): 62.7 µM

COc1cc2c(/C=C3\C(=O)N(C)c4ccccc43)c[nH]c2cc1C
GI50 (SF-539 CNS): 4.2 µM
TGI (SF-539 CNS): > 31.2 µM
GI50 (KM12 colon): 0.735 µM
TGI (KM12 colon): > 100 µM
GI50 (SR leukemia): 2.07 µM
TGI (SR leukemia): 14.2 µM
GI50 (SNB-19 CNS): 4.15 µM
TGI (SNB-19 CNS): > 100 µM
GI50 (SN12C renal): 2 µM
TGI (SN12C renal): > 73.5 µM
GI50 (SW-620 colon): 1.68 µM
TGI (SW-620 colon): > 100 µM
GI50 (NCI-H23 lung): 5.33 µM
TGI (NCI-H23 lung): > 67.9 µM
GI50 (ACHN renal): 3.61 µM
TGI (ACHN renal): 55.7 µM
GI50 (HOP-62 NSCLC): 2.23 µM
TGI (HOP-62 NSCLC): 39.3 µM
GI50 (BT-549 breast): 7.53 µM
TGI (BT-549 breast): 71.9 µM

CCCCN(CCCC)P(=O)(Oc1ccccc1)Oc1ccccc1
GI50 (SF-539 CNS): 14 µM
TGI (SF-539 CNS): 28.6 µM
GI50 (KM12 colon): 8.1 µM
TGI (KM12 colon): 21.4 µM
GI50 (SR leukemia): 7.34 µM
TGI (SR leukemia): 68.5 µM
GI50 (SNB-19 CNS): 8.82 µM
TGI (SNB-19 CNS): 23.5 µM
GI50 (SN12C renal): 5.53 µM
TGI (SN12C renal): 19.7 µM
GI50 (SW-620 colon): 5.41 µM
TGI (SW-620 colon): 19.4 µM
GI50 (NCI-H23 lung): 4.56 µM
TGI (NCI-H23 lung): 17.7 µM
GI50 (ACHN renal): 5.78 µM
TGI (ACHN renal): 19.3 µM
GI50 (HOP-62 NSCLC): 14 µM
TGI (HOP-62 NSCLC): 27.7 µM
GI50 (BT-549 breast): 14.9 µM
TGI (BT-549 breast): 28.3 µM

O=S(O)O.O=S(O)O.[Co].[NH2-].[NH2-].[NH2-].[NH2-]
GI50 (SF-539 CNS): > 100 µM
TGI (SF-539 CNS): > 100 µM
GI50 (KM12 colon): > 100 µM
TGI (KM12 colon): > 100 µM
GI50 (SR leukemia): > 100 µM
TGI (SR leukemia): > 100 µM
GI50 (SNB-19 CNS): > 100 µM
TGI (SNB-19 CNS): > 100 µM
GI50 (SN12C renal): > 100 µM
TGI (SN12C renal): > 100 µM
GI50 (SW-620 colon): > 100 µM
TGI (SW-620 colon): > 100 µM
GI50 (NCI-H23 lung): > 100 µM
TGI (NCI-H23 lung): > 100 µM
GI50 (ACHN renal): > 100 µM
TGI (ACHN renal): > 100 µM
GI50 (HOP-62 NSCLC): > 100 µM
TGI (HOP-62 NSCLC): > 100 µM
GI50 (BT-549 breast): > 100 µM
TGI (BT-549 breast): > 100 µM
